Experimental data: US20220033448A1, “METHODS FOR AGGREGATION OF PROTEINS” (priority 2011, published 2022)
Where two headings read alike, the source gives them in different places. No end group written: not given here.

How the values were obtained:
[1] = tested on: S. epidermidis strain ATCC 12228 and S. aureus ATCC; format: cell-based, Staphylococcus
Protocol: Time-kill curves were obtained to study the kinetics of bactericidal activity. Compounds C30, Hit50 and C29 (for sequences see above) were tested against S. epidermidis strain ATCC 12228 and S. aureus ATCC at the compound's MIC and two times MIC value. It was shown that compound C30 decreased the viable counts by 100% within 5 min, while Hit50 reduced the viable counts by ^˜3 log units after the same incubation period, both at a concentration that equaled its MIC value (see FIG. 11A and FIG. 11B). […] For example the time needed to decrease the number of CFU/ml one-fold for C29 was 60 minutes (at the minimum inhibitory concentration), and only 10 minutes for 2×MIC.

E. coli = E. coli ATCC25922; planktonic bacteria; read-out after 18 hours of growth
Protocol: (§1) Bacteria were grown in a shaking incubator at 37° C. and 160rpm in 50 ml BHI , using individual colonies retrieved from a fresh overnight TSA-sheep blood plate. The cultures were grown to a density of approximately 1×10^8cells/ml and then diluted to 5×10^5 cells/ml in CAMHB (Mc Farland 0.5). Each well contained 100p.I (50p.I of peptide containing MHB plus 50 μl inoculum). The final cell density was 1×10^5 to 5×10^5/ml. After addition of the cell suspension, plates were incubated at 37° C. for 18 to 24 hours. The optical density at 590 nm (OD590) of each well was measured after 5 seconds of shaking the plate using Perkin Elmer spectrophotometer (1420 Multilabel Counter Vicotr 3). […] Each well, where no growth was observed, was also plated on TSA-sheep blood agar plates, incubated at 37° C. overnight and visually inspected.
A microbroth dilution method was used with twofold serial dilutions in CAMHB (according to EMEA guidelines) was used for screening of peptide activity, with concentrations ranging from 0.3 μg/mIto 200 μg/ml.

Ps. aeruginosa ATCC27853 = assay: MIC, microbroth dilution; details: planktonic, 18 hours
Protocol: as §1

human erythrocytes = format: cell-based
Source text: The detergent Tween was used as a positive control, causing 100% lysis of RBCs.

Candida albicans SC5314 = assay: Invasion of C. albicans SC5314 into epithelial cell line TR-146; format: cell-based; details: invasion 3 h
Protocol: As discussed herein before, C. albicans Als3 also plays a role in adherence and invasion to epithelial and endothelial cells. […] Here we investigated the effect of external application of interferor peptide F9 on C. albicans SC5314 adherence and invasion to epithelial cells. Thereto, Candida cells were incubated together with the human cells (epithelial cell line TR-146) in the presence of peptide F9 during adhesion (1 h) or invasion (3 h). The amount of adhered and internalized cells was determined by counting using epifluorescence.
The monolayers of TR-146 cell lines were infected with Candida cells as previously described in 6.2.15. After 3 h incubation period of monolayers with Candida cells at 37° C., 5% CO2, the medium above the epithelial cells was aspirated and the monolayers were rinsed three times with 1× PBS to remove fungal cells which were not associated with epithelial cells. Next, the epithelial cells were fixed with 4% Histofix (Roth) for 20 min at 37° C. All fungal cells remaining adherent to the surface were stained for 1 h with a rabbit anti-C. albicans polyclonal antibody (Acris Antibodies, Germany) (dilution 1:2000) and counterstained with a secondary anti-rabbit IgG conjugated with Alexa Fluor 488 (Invitrogen) (dilution 1:5000). After extensive rinsing with 1× PBS, the cells were permeabilized in 0.5% Triton X-100 in water for 5 min. Further, adherent and invading parts of fungal cells within epithelial cells were stained with calcofluor white (dilution 1:100) for 15 min and washed three times with water, for 10 min at 30° C., 180 rpm. Coverslips were mounted inverted onto glass slides and the stained cells were visualized with epifluorescence using a filter set to detect calcofluor white (filter for DAPI) and Alexa Fluor 488 (Leica DFC350 FX, Mannheim, Germany). The percentage of invading C. albicans cells was determined by dividing the number of internalized cells by the total number of adherent cells. At least 100 fungal cells were counted on each coverslip.

RILLGLIRRGSRILLGLIRR [C30]
time needed to kill Staphylococci [1]: 5 to 10 min
decrease of viable counts ([1]; Staphylococcus epidermidis and Staphylococcus aureus, 5 min, 1 ×MIC): 100%
maximal increase of the MIC (MRSA strain 326; 31 days, concentration in medium adjusted to MIC of previous day): ≤ 4 fold
MIC on the last day of the experiment (MRSA strain 326; day 31): 12,5 μg/ml
MIC (E. coli): E. coli ATCC25922: 100 μg/ml
activity against the genus Corynebacterium (Corynebacterium): active against the genus Corynebacterium
MIC (Ps. aeruginosa ATCC27853): Ps. aeruginosa ATCC27853: >100 μg/ml
MIC (S. aureus): 6 µg/mL
MIC in presence of 50% FBS (S. aureus): 50 µg/mL
MIC (S. aureus; MRSA 115, planktonic, 18 hours): MRSA 115: 6 μg/ml
MIC (S. aureus; MRSA 165, planktonic, 18 hours): MRSA 165: 3 μg/ml
MIC (S. aureus; MRSA 204, planktonic, 18 hours): MRSA 204: 6 μg/ml
MIC (S. aureus; MRSA 274, planktonic, 18 hours): MRSA 274: 3 μg/ml
MIC (S. aureus; MRSA 351, planktonic, 18 hours): MRSA 351: 3 μg/ml
MIC (S. aureus; MRSA 418, planktonic, 18 hours): MRSA 418: 6 μg/ml
MIC (S. aureus; MRSA 651, planktonic, 18 hours): MRSA 651: 3 μg/ml
MIC (S. aureus; S. aureus ATCC29213, planktonic, 18 hours): S. aureus ATCC29213: 3 μg/ml
HD50 (concentration at which 50% of red blood cells are lysed) (human erythrocytes): 25 to 50 µg/mL

RKLLFNLGSRNGIVIVATTR [F9]
effect on invasion of epithelial cells (Candida albicans SC5314; 2.5 μM): did not have any effect on invasion
decrease of invasion of epithelial cells (Candida albicans SC5314; 10 μM): 15%
decrease of invasion of epithelial cells (Candida albicans SC5314; 50 μM): 34%
